We go through 1 molecule from paper PMC6472337, “L amino acid transporter structure and molecular bases for the asymmetry of substrate interaction” (Nature Communications, 2019).

The term Km denotes the concentration of substrate that gives half-maximal velocity.

“And” between values parts separate entries of the source, which are not always exact repeats. Identical values can stand only once. Like-named read-outs stand apart in the source and are kept apart here.

One assay deals with BasC wild-type. The assay is described as follows: [3H]L-alanine transport (influx, efflux, exchange) in BasC proteoliposomes. It counts as biochemical, Carnobacterium sp AT7. To be noted: for V: 4 mM L-alanine inside PLs, without Nb74. As to the method:
(§1) BasC-GFP protein was reconstituted in E. coli polar lipids (Sigma-Aldrich, Madrid, Spain), as previously described. Lipids were dried under N2 and suspended in reconstitution buffer (20 mM Tris-Base, 150 mM NaCl, pH 7.4). The suspension was sonicated to clarity and purified BasC protein was added to reach the desired protein to lipid ratio of 1:100 (w:w). To destabilize the liposomes, 1.25% ß-D-octylglucoside was added and the mixture was incubated on ice with occasional agitation for 5 min. DDM and ß-D-octylglucoside were removed by dialysis for 40 h at 4 °C against 100 volumes of dialysis buffer. Proteoliposome (PL) suspensions were frozen in liquid N2 and stored at −80 °C until use.
(§2) For uptake experiments, the desired intraliposomal amino acid concentration was added to the PL suspension, which was then subjected to three freeze/thaw cycles. The extraliposomal amino acid content was then removed by ultracentrifugation (100,000 × g for 1 h at 4 °C) and PLs were resuspended to one-third of the initial volume with reconstitution buffer. Amino acid uptake assays were initiated after mixing 10 μl of cold PLs with 180 μl of transport buffer (20 mM Tris-Base, 150 mM NaCl, pH 7.4 plus 0.5–1 µCi/180 µl of radiolabeled L-amino acid (Perkin Elmer, Waltham, MA)) supplemented with the unlabeled amino acid to the desired concentration. This mixture was then incubated at room temperature for the indicated periods. […] Filters were then washed twice with 2 ml of stop buffer and dried, and the trapped radioactivity was counted. Transport measured in PLs containing no amino acid was subtracted from each data point to calculate the net exchange. […] BasC protein in PLs was determined by Coomassie blue staining in SDS-PAGE gels compared with known amounts of BasC in DDM micelles, determined by BCA assay (Pierce, Rockford, IL) and loaded in the same gel.

The test system of the next assay is BasC K154A mutant. Briefly: [3H]L-alanine transport in BasC K154A proteoliposomes. Conditions: for V/[L-Ala]: Eadie-Hofstee, n=1-3 and mean. It counts as biochemical, Carnobacterium sp AT7. On the set-up: V/[L-Ala]: unit not given here. As to the method: BasC was overexpressed as a C-terminal fusion with GFP in E. coli BL21 Star (DE3) cells grown in LB media. Single point mutations (Supplementary Table 2) were introduced using the QuikChange site-directed mutagenesis kit (Stratagene, San Diego, CA). All mutations were verified by sequencing. Expression was induced with 0.1 mM isopropyl-ß-D-thiogalactopyranoside at 37 °C for 22 h. Cells were harvested at 5000 × g for 15 min at 4 °C and stored at −80 °C until use. Cell pellets were thawed and resuspended in 20 mM Tris-Base, 150 mM NaCl, pH 7.4. Cells were pelleted again at 5000 × g for 15 min at 4 °C, resuspended in lysis buffer (20 mM Tris-Base, 350 mM NaCl, pH 7.4, 1 mM pefabloc and complete mini protease inhibitor cocktail) (Roche, Basel Switzerland) and then broken using a Cell Disruptor (four cycles at 20,000 psi; Constant Systems Ltd., Daventry, UK). Cell debris was removed by centrifugation (15,000 × g for 1 h at 4 °C), and the supernatant was subjected to ultracentrifugation (200,000 × g for 2 h at 4 °C). The membrane pellet was resuspended in 20 mM Tris-Base, 150 mM NaCl, pH 7.4 and 10% glycerol at a protein concentration of 8–12 mg ml^−1, and then frozen in liquid nitrogen and stored at −80 °C until use.
as §1, §2

The target in the next assay is T1, hAsc-1 K194A mutant (Homo sapiens, UniProt Q9NS82, K194A).
T1 sequence (Q9NS82 1-523 K194A): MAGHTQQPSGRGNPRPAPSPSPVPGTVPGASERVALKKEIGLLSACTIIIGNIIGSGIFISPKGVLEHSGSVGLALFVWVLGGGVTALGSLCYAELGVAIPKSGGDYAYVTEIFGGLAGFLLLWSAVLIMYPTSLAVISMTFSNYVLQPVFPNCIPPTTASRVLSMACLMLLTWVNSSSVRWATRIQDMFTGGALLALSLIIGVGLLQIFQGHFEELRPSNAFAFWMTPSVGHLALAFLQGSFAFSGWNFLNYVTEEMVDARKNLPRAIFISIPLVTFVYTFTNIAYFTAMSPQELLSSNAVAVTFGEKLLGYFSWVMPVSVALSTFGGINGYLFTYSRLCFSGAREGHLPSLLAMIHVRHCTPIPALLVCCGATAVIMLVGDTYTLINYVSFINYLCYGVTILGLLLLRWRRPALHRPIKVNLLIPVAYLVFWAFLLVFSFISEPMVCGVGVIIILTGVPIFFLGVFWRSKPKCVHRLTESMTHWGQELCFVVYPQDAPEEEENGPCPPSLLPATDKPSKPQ
T1 sequence (P08195 1-529 partner): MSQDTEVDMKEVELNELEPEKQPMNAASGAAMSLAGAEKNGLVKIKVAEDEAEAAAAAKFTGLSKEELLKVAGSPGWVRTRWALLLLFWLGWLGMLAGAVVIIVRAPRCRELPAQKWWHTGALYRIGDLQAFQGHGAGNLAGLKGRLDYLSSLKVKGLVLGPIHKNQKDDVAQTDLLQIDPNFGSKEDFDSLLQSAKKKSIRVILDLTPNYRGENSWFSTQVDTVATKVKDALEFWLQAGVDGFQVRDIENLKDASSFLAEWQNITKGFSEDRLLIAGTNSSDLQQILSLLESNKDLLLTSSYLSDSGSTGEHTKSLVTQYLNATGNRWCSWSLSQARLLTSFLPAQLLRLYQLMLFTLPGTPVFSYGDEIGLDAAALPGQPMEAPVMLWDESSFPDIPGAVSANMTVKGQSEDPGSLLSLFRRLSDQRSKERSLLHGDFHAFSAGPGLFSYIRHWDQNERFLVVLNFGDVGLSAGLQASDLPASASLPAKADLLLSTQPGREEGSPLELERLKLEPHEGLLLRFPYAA
Briefly: [3H]L-alanine uptake in HeLa cells, hAsc-1 K194A.

With `C[C@H](N)C(=O)O` [L-alanine], the “saturation of the transporter at 4 mM intraliposomal L-alanine” value in the assay with BasC wild-type (BasC wild-type) was “about 80%”. The “V/[L-Ala]” value was 0.010 pmol µg prot-1 s-1µM-1 with BasC wild-type (Eadie-Hofstee, L-alanine 800 μM, with 5 µM Nb74, n=1-3 and mean); 0.0007 and 0.0010 and 0.0009 with BasC K154A mutant (extracellular side, L-alanine 100 μM); 0.000458 and 0.000473 and 0.0005 in the assay with BasC K154A mutant (extracellular side, L-alanine 500 μM). Also, the Km in the assay on BasC wild-type (L-alanine concentrations up to 800 µM, absence of Nb74, read-out: extracellular Km) came out at 65 ± 12 µM; in the assay on BasC wild-type (extracellular side, wild-type, read-out: Km (o)), 53.7 ± 3.97 µM; with BasC wild-type (full range kinetics inhibited by 5 µM Nb74, read-out: extracellular Km) it was 46 ± 9 µM; in the assay with BasC wild-type (intracellular side, wild-type, read-out: Km (i)), 2220 ± 150 µM; in the assay with BasC K154A mutant (extracellular side, 5 µM Nb74, read-out: Km (o)) it was 474 ± 42 µM; with BasC K154A mutant (intracellular side, 5 µM Nb74, read-out: Km (i)), 2040 ± 370 µM. Moreover, the V was 5.346 pmol L-Ala μg BasC-1 s-1 and 5.124 pmol L-Ala μg BasC-1 s-1 and 4.879 pmol L-Ala μg BasC-1 s-1 in the assay on BasC wild-type (external [3H]L-alanine 100 μM, n=1-3 and mean); 7.346 pmol L-Ala μg BasC-1 s-1 and 6.582 pmol L-Ala μg BasC-1 s-1 and 6.938 pmol L-Ala μg BasC-1 s-1 with BasC wild-type (external [3H]L-alanine 200 μM, n=1-3 and mean); 7.143 pmol L-Ala μg BasC-1 s-1 and 6.357 pmol L-Ala μg BasC-1 s-1 and 9.257 pmol L-Ala μg BasC-1 s-1 with BasC wild-type (external [3H]L-alanine 400 μM, n=1-3 and mean). The values for the Vmax in the assay on BasC wild-type (wild-type) and in the assay on BasC K154A mutant were 6.37 ± 0.70 pmols L-alanine µg protein^−1 s^−1 and 0.32 ± 0.04 pmols L-alanine µg protein^−1 s^−1, respectively. Further, the “reduction of Vmax vs. wild-type” value in the assay with BasC K154A mutant and at hAsc-1 K194A mutant was ~ 10 fold each time. Further, the “reduction of extracellular apparent affinity vs. wild-type” value in the assay with BasC K154A mutant was ~ 10 fold. Moreover, the “reduction of external apparent affinity vs. wild-type” value at hAsc-1 K194A mutant is reported as ~ 10 fold.
